Experimental data as given in patent US9308253B2, “Cancer immunotherapy” (The Johns Hopkins University, priority 2011, dated 2016).

How the values were obtained:
TLR4 = conditions: cited from earlier work
B16 melanoma = assay: Tumor treatment assay, palpable B16 model; assay type: in vivo, C57BL/6 mice; conditions: palpable B16, single subcutaneous treatment in contralateral limb
Experimental: IDC-1005 was incubated with irradiated GVAX cells at 4 deg C. for 0.5-2, hours prior to inoculation. GVAX formulated with IDC-1005 is labeled as TEGVAX.
Tumor treatment assay: C57BL/6 mice were injected with 1-5×10^4 B16 in the footpads. Once palpable tumor developed (5-10 days), 100 μl of 10^6 B16 GVAX formulated with or without IDC-1005 were injected subcutaneously into the contralateral limb. The control groups were injected with vehicle. For all these experiments, 10 mice were used per group. […] For all the vaccines, GM-CSF was titered to ensure that GM-CSF expression level ranged from 50-500 ng/10^6 Cells/24 hours. Tumor was measured daily.

[1] = human, in vivo; cited from earlier work

Row | Compound | TH1 type cytokines on activation of dendritic cells (TLR4; murine and human dendritic cells, in vivo and in vitro, versus MPL) | TLR4 agonist strength (TLR4; versus monophosphoryl lipid A) | tumor growth rate / in vivo anti-tumor response (B16 melanoma) | safety / toxicity in patients [1]
1 | CCCCCCCCCCCCCC(=O)O[C@H](CCCCCCCCCCC)CC(=O)O[C@@H]1[C@@H](NC(=O)C[C@H](CCCCCCCCCCC)OC(=O)CCCCCCCCCCCCC)[C@H](OC[C@H]2O[C@H](O)[C@H](NC(=O)C[C@H](O)CCCCCCCCCCC)[C@@H](OC(=O)C[C@H](O)CCCCCCCCCCC)[C@@H]2O)O[C@H](CO)[C@H]1OP(=O)(O)O [GLA, glucopyranosyl lipid A] | more potent in terms of increasing multiple TH1 type cytokines | stronger TLR4 agonist than the monophosphyl lipid A | no in vivo anti-tumor effects | –
2 | CCOCc1nc2c(N)nc3ccccc3c2n1CC(C)(C)O [R848, resiquimod] | – | – | – | passed phase 1 trials for safety
3 | ipilimumab: anti-CTLA-4 antibody | – | – | – | grade 3-4 toxicity
